Reference: US4025533A, “5-Bromo-5-nitro-2-alkylsubstituted-1,3-dioxane” (Eli Lilly and Company, priority 1976, dated 1977)
In brackets after ≈: the same amount, converted by molar mass.

What was measured:
Propionibacterium acnes = test: conventional tube dilution test, anaerobic; format: cell-based; settings: Cutibacterium acnes, medium pH 6.9, read-out: minimum inhibitory concentration
Procedure: For example, 5-bromo-2-methyl-5-nitro-1,3-dioxane (Compound C) was tested against Propionibacterium acnes (formerly called Corynebacterium acnes) in a conventional tube dilution test. A simultaneous test was run utilizing 2-bromo-2-nitropropane,1,3-diol (Compound A) and 5-bromo-5-nitro-1,3-dioxane (Compound B) as the antimicrobials.
The test against Propionibacterium acnes were run anaerobically in the following medium:
(§1) Distilled water q.s. -- 1000 ml
The pH of the medium was 6.9

Escherichia coli [1] = test: agar plate system (Table II); format: cell-based; settings: antibiotic medium 1, 72 hours at 30° C., read-out: Minimum Inhibitory Concentration
Procedure: (§2) The antimicrobial activities of Compounds A, B, C, D, E and F were also determined in an agar plate system. The compounds were added to melted and cooled (50° C.) agar in twofold concentration increments from 50 mcg per ml of agar to 1.56 mcg per ml of agar. Antibiotic medium 1 [CFR 436.102(1)] was used for testing of Pseudomonas aeruginosa, Staphylococcus aureus, Escherichia coli, and Streptococcus faecalis, but antibiotic medium 22 [CFR 436.102(22)] was used for testing of Candida albicans and Aspergillus niger. Organism suspensions containing 10^6 organisms per ml were used as stock suspensions. Sterile cotton swabs were dipped in the suspensions and then streaked across the solidified agar. The figures shown in Table II were the lowest concentrations at which no growth occurred after 72 hours at 30° C. These values were interpreted as the minimum inhibitory concentration (MIC).

Streptococcus faecalis [2] = test: agar plate system (Table II); format: cell-based; settings: Enterococcus faecalis, antibiotic medium 1, 72 hours at 30° C., read-out: Minimum Inhibitory Concentration
Procedure: as §2

Staphylococcus aureus [3] = test: agar plate system (Table II); format: cell-based; settings: antibiotic medium 1, 72 hours at 30° C., read-out: Minimum Inhibitory Concentration
Procedure: as §2

Candida albicans [4] = test: agar plate system (Table II); format: cell-based; settings: antibiotic medium 22, 72 hours at 30° C., read-out: Minimum Inhibitory Concentration
Procedure: as §2

Aspergillus niger [5] = test: agar plate system (Table II); format: cell-based; settings: antibiotic medium 22, 72 hours at 30° C., read-out: Minimum Inhibitory Concentration
Procedure: as §2

Pseudomonas aeruginosa [6] = test: agar plate system (Table II); format: cell-based; settings: antibiotic medium 1, 72 hours at 30° C., read-out: Minimum Inhibitory Concentration
Procedure: as §2

Escherichia coli [7] = test: conventional tube dilution test (Table I); format: cell-based; settings: 48 h, antibiotic Number 3 medium, two days at 37° C., read-out: Minimum Inhibitory Concentration
Procedure: (§3) The in vitro antimicrobial activities of Compounds A, B and C, 5-bromo-2-ethyl-5-nitro-1,3-dioxane (Compound D), 5-bromo-5-nitro-2-n-propyl-1,3-dioxane (Compound E), and 5-bromo-2-isopropyl-5-nitro-1,3-dioxane (Compound F) were determined concurrently against Pseudomonas aeruginosa, Staphylococcus aureus, Escherichia coli, and Streptococcus faecalis in a conventional tube dilution test. The medium used was antibiotic Number 3 [CFR 436.102(3)] and the concentration of organisms was 10^4 organisms per ml of medium, with each tube being inoculated with 0.1 ml of inoculum. The figures shown in Table I are the lowest concentrations in mcg of active compound/ml of medium where no growth occurred in the medium after two days' incubation at 37° C.

Streptococcus faecalis [8] = test: conventional tube dilution test (Table I); format: cell-based; settings: Enterococcus faecalis, 48 h, antibiotic Number 3 medium, two days at 37° C., read-out: Minimum Inhibitory Concentration
Procedure: as §3

Staphylococcus aureus [9] = test: conventional tube dilution test (Table I); format: cell-based; settings: 48 h, antibiotic Number 3 medium, two days at 37° C., read-out: Minimum Inhibitory Concentration
Procedure: as §3

Pseudomonas aeruginosa [10] = test: conventional tube dilution test (Table I); format: cell-based; settings: 48 h, antibiotic Number 3 medium, two days at 37° C., read-out: Minimum Inhibitory Concentration
Procedure: as §3

Escherichia coli [11] = test: in vitro agar plate determination (Table VII); format: cell-based; settings: agar plates at 10, 25 and 50 mcg. per ml., 24 hours, read-out: Minimum Inhibitory Concentration
Procedure: (§4) The antimicrobial activities of […] (Compound G) were determined concurrently with 5-bromo-2-methyl-5-nitro-1,3-dioxane (Compound C) and 5-bromo-5-nitro-1,3-dioxane (Compound B) against the same six organisms shown in Table II. […] The tests were in vitro determinations utilizing agar plates containing the active compound at 10, 25 and 50 mcg. per ml. of agar. The organisms, at concentrations of 10^6 organisms per milliliter, were streaked on the solidified agar. The plates were incubated for 24 hours and the presence or absence of growth noted. The minimum inhibitory concentration (MIC) was determined as the lowest active compound concentration in the agar where no growth occurred.

Streptococcus faecalis [12] = test: in vitro agar plate determination (Table VII); format: cell-based; settings: Enterococcus faecalis; agar plates at 10, 25 and 50 mcg. per ml., 24 hours; read-out: Minimum Inhibitory Concentration
Procedure: as §4

Staphylococcus aureus [13] = test: in vitro agar plate determination (Table VII); format: cell-based; settings: agar plates at 10, 25 and 50 mcg. per ml., 24 hours, read-out: Minimum Inhibitory Concentration
Procedure: as §4

Candida albicans [14] = test: in vitro agar plate determination (Table VII); format: cell-based; settings: agar plates at 10, 25 and 50 mcg. per ml., 24 hours, read-out: Minimum Inhibitory Concentration
Procedure: as §4

Aspergillus niger [15] = test: in vitro agar plate determination (Table VII); format: cell-based; settings: agar plates at 10, 25 and 50 mcg. per ml., 24 hours, read-out: Minimum Inhibitory Concentration
Procedure: as §4

Pseudomonas aeruginosa [16] = test: in vitro agar plate determination (Table VII); format: cell-based; settings: agar plates at 10, 25 and 50 mcg. per ml., 24 hours, read-out: Minimum Inhibitory Concentration
Procedure: as §4

Microsporum gypseum = test: In Vitro Antifungal Activity, agar plates (Table III); format: cell-based; settings: Nannizzia gypsea, 72 h, three days at 25° C., pH 5.7, read-out: Minimum Inhibitory Concentration
Procedure: (§5) Compounds A, B, and C were tested further to determine antifungal activity. The compounds were added to melted and cooled (50° C.) agar to obtain concentrations of 100, 50, 25, 12.5, 6.25 and 0.0 mcg per ml of agar. After the agar solidified, sterile cotton swabs were dipped in stock suspensions of the organisms (10^6 organisms per ml of physiological saline) and then streaked across the agar. After three days' incubation at 25° C., concentrations which prevented growth were recorded as the minimal inhibitory concentration. The composition of the medium used in this study was as follows:
(§6) Calcium carbonate -- 0.5 g
(§7) V-8 juice filtrate -- 200.0 ml
as §1
(§8) The pH was adjusted to 5.7.

Chaetomium globosum = test: as above; format: cell-based; settings: 72 h, three days at 25° C., pH 5.7, read-out: Minimum Inhibitory Concentration
Procedure: as §5, §6, §7, §1, §8

Colletotrichum phomoides = test: as above; format: cell-based; settings: 72 h, three days at 25° C., pH 5.7, read-out: Minimum Inhibitory Concentration
Procedure: as §5, §6, §7, §1, §8

[17] = system: Fusarium oxysporum cubense; test: as above; format: cell-based; settings: 72 h, three days at 25° C., pH 5.7, read-out: Minimum Inhibitory Concentration
Procedure: as §5, §6, §7, §1, §8

Penicillium notatum = test: as above; format: cell-based; settings: Penicillium chrysogenum, 72 h, three days at 25° C., pH 5.7, read-out: Minimum Inhibitory Concentration
Procedure: as §5, §6, §7, §1, §8

Rhodotorula glutinis = test: as above; format: cell-based; settings: 72 h, three days at 25° C., pH 5.7, read-out: Minimum Inhibitory Concentration
Procedure: as §5, §6, §7, §1, §8

Aspergillus fumigatus = test: as above; format: cell-based; settings: 72 h, three days at 25° C., pH 5.7, read-out: Minimum Inhibitory Concentration
Procedure: as §5, §6, §7, §1, §8

Botrytis cinerea = test: as above; format: cell-based; settings: 72 h, three days at 25° C., pH 5.7, read-out: Minimum Inhibitory Concentration
Procedure: as §5, §6, §7, §1, §8

[18] = system: Saccharomyces pastorianus; test: as above; format: cell-based; settings: 72 h, three days at 25° C., pH 5.7, read-out: Minimum Inhibitory Concentration
Procedure: as §5, §6, §7, §1, §8

Aspergillus terreus = test: as above; format: cell-based; settings: 72 h, three days at 25° C., pH 5.7, read-out: Minimum Inhibitory Concentration
Procedure: as §5, §6, §7, §1, §8

human skin = settings: in vivo
Source text: The following protocol was followed in testing each compound.
Two-hundred subjects were employed in each investigation. The repeated insult technique was used in the patch test. A different group of subjects were utilized for each evaluation.
The technique used for the patch test called for a series of 9 induction patches of each test material to be placed on each of the subjects. The series was followed two weeks later by a single "challenge" patch of each test material to detect skin sensitization.
The series of nine induction patches was applied on Monday, Wednesday and Thursday and allowed to contact the skin for 24 hours, after which time they were removed and the skin sites graded for irritation. Thursday's patches were placed immediately after removal and grading of Wednesday's applications. After the ninth induction patches had been placed, a non-patching period of 2 weeks elapsed before the challenge patches were applied to detect sensitization reactions. For this 24-hour patch, a new skin site was used. This site was invariably chosen adjacent to an induction site; i.e., one where repeated applications had been made during the series of nine induction patches. The challenge applications were graded at 24 and 72 hours after application.
The skin applications for each material were made using oval-shaped adhesive patches (1" × 11/4") with circular gauze centers. The gauze centers were coated with approximately 0.03 ml. of the respective test material just prior to application.
The scoring criteria used for skin irritation reactions and in evaluating the sensitization evidenced on the challenge application follows:
Four separate formulations of each compound were tested along with two formulations of parabens.
A reading of 5 or more on the 8-point scale was deemed to be indicative of the development of skin sensitization to the test compound.

[19] = chemical stability towards pH / alkali; format: physicochemical; settings: pH 5-9
[20] = solubility in water and mineral oil; format: physicochemical; settings: compared with other species of the invention
microorganisms = test: antimicrobial tests on isomeric mixtures; format: cell-based; settings: one high in the cis- form, the other high in the trans- form
Procedure: The novel compounds of this embodiment of the present invention, exemplified in Examples 1, 2, 3, and 4 can exist as cis- and trans-isomers. The procedure outlined in Example 1 produces a ratio of isomers of about 9:1. It is the intent of this invention to include both geometric isomers as chemical entities as well as the isomeric mixture. […] Consequently, the utility tests described hereinafter were conducted employing the isomeric mixture (about 9:1) prepared as detailed in Example 1.

CC1OCC(Br)([N+](=O)[O-])CO1 (stereo not shown) [Compound C, 5-bromo-2-methyl-5-nitro-1,3-dioxane]
MIC (Propionibacterium acnes): 6.25 µg/mL (≈ 27.7 µM) | MIC (Escherichia coli [1]): 12.5 µg/mL (≈ 55.3 µM) | MIC (Streptococcus faecalis [2]): 12.5 µg/mL (≈ 55.3 µM) | MIC (Staphylococcus aureus [3]): 12.5 µg/mL (≈ 55.3 µM) | MIC (Candida albicans [4]): 6.25 µg/mL (≈ 27.7 µM) | MIC (Aspergillus niger [5]): 12.5 µg/mL (≈ 55.3 µM) | MIC (Pseudomonas aeruginosa [6]): 25 µg/mL (≈ 111 µM) | MIC (Escherichia coli [7]): 25 µg/mL (≈ 111 µM) | MIC (Streptococcus faecalis [8]): 25 µg/mL (≈ 111 µM) | MIC (Staphylococcus aureus [9]): 25 µg/mL (≈ 111 µM) | MIC (Pseudomonas aeruginosa [10]): 25 µg/mL (≈ 111 µM) | MIC (Escherichia coli [11]): 12.5 µg/mL (≈ 55.3 µM) | MIC (Streptococcus faecalis [12]): 12.5 µg/mL (≈ 55.3 µM) | MIC (Staphylococcus aureus [13]): 12.5 µg/mL (≈ 55.3 µM) | MIC (Candida albicans [14]): 6.25 µg/mL (≈ 27.7 µM) | MIC (Aspergillus niger [15]): 12.5 µg/mL (≈ 55.3 µM) | MIC (Pseudomonas aeruginosa [16]): 25 µg/mL (≈ 111 µM) | MIC (Microsporum gypseum): 100 µg/mL (≈ 442 µM) | MIC (Chaetomium globosum): < 6.25 µg/mL | MIC (Colletotrichum phomoides): 100 µg/mL (≈ 442 µM) | MIC [17]: 12.5 µg/mL (≈ 55.3 µM) | MIC (Penicillium notatum): 25 µg/mL (≈ 111 µM) | MIC (Rhodotorula glutinis): 100 µg/mL (≈ 442 µM) | MIC (Aspergillus fumigatus): < 6.25 µg/mL | MIC (Botrytis cinerea): 12.5 µg/mL (≈ 55.3 µM) | MIC [18]: > 100 µg/mL | MIC (Aspergillus terreus): 12.5 µg/mL (≈ 55.3 µM) | subjects evaluated as being sensitive on the challenge test (human skin): none | chemical stability at pH [19]: chemically stable at pH's from 5.0 to 9.0 | solubility in water and oil, qualitative [20]: superior solubility in water and oil | antimicrobial activity of isomeric mixtures (microorganisms): equal activity
